Legend:
ECS-induced amnesia = experiment: Passive avoidance test, amnesia induced by electroconvulsive shock (ECS); type: in vivo, Male CDI mice; details: percentage of amnesia reversal, given 30 minutes before training, retention 24 hours later
Description: In order to assess the antiamnesic activity the passive avoidance test in mince was used.
Male CDI mice weighing 25-26 g (charles River, Germany) fed on a normal diet, were used.
The compounds were administered i.p.; doses equimolar to 9.0 and 0.9 mg piracetam kg ⁻¹ were used.
The water-soluble compounds were dissolved in saline; the insoluble ones were dissolved in dimethylsulfoxide and then diluted in 2% Tween 80, ratio 1:4.
The apparatus for passive avoidance conditioning was a black plastic chamber (42 x 42 cm, height 40 cm), provided with a floor constructed of metal that could be electrified. From the front wall extended a white runway, 30 cm long and 10 cm wide provided with side walls 12 cm high, which led into the box through a guillotine door.
The animals, 30 minutes following treatment, were placed on the runways. After one minute of adaptation, the door was raised and the time employed by the animal to enter the darkened with all four feet, was recorded.
Upon entry, the guillotine door was lowered and 3 seconds thereafter the rods were electrified, 0.24 mA for 2 seconds. The mouse was then removed from the chamber and immediately administered and electroshock delivered through spring clips attached to the ears (square wave, intensity 20 mA, amplitude 0.6 msec, duration 0.5 s, frequency 50 Hz). Immediately thereafter the animal was placed in the housing cage. Retention was assessed 24 hours later by placing the animal on the runways and again evaluating the latency in entering the chamber, using an end-point of 300 s (crf. Brammer, loc. cit.).
In each experiment, two groups of animals in addition to the treated ones were used, that were defined as follows: • (1) ceiling control animals (treated with placebo and not subjected to ECS amnesia treatment) to ensure that these animals not treated with the amnesia agent remembered the task; • (2) base-line control animals (treated with placebo and subjected to ECS amnesia treatment) to ensure that ECS produced amnesia in the animals not treated with the compounds of the present invention.
The sum ΣAij encompasses all the possible pairs obtained by combining each term Xi with each term Xj.

[1] = Behavioural profile (Irwin test); type: in vivo, male CDI Mice; details: mouse, in vivo; oral, 90 mg/kg (equimolar to piracetam), monitored for 6 hours; read-out: death rate
Description: (§1) The behavioural profile was assessed in male CDI Mice (Charles River, Italy) weighing 22-24 g, using the Irwin test (IRWIN S., Drug screening and evaluation procedures; 136, 123-128, 1962). The animals had been caged under normal conditions and kept fasting for the last 18 hours.
(§2) Following administration of the compounds, the behaviour of the animals was monitored for 6 hours. The compounds were suspended in 10% arabic gum and orally administered at doses equimolar to 90, 23, 5.4 and 1.4 mg piracetam/10mL/kg of body weight.
(§3) The animals of the control groups were administered 10% arabic gum (10mL/kg, orally).

male CDI Mice = experiment: Behavioural profile (Irwin test); type: in vivo; details: oral, the other doses (equimolar to 23, 5.4 and 1.4 mg piracetam/10mL/kg), monitored for 6 hours
Description: as §1, §2, §3

[2] = relative to oxiracetan; cited from earlier work
[3] = 0.9 mg/kg (i.p., dose equimolar to 0.9 mg piracetam kg-1)
[4] = 9mg/kg (i.p., dose equimolar to 9.0 mg piracetam kg-1)

Row | SMILES | %AR (ECS-induced amnesia; [3]) | %AR (ECS-induced amnesia; [4]) | mortality at 6 h [1] | toxicity (male CDI Mice) | doses for nootropic activity, times as high as those of oxiracetan [2]
1 | CC(C)N(CCNC(=O)[C@@H]1CCCN1C=O)C(C)C [ST 849, (S)-1-[N-(FORMYL)-PROLYL]-2.2(DIISOPROPYL)-ETHYLENDIAMINE] | 3% | 59% | – | – | –
2 | O=C([C@@H]1CCCN1C(=O)OCc1ccccc1)N1CCN(c2cccc(Cl)c2)CC1 [ST 792, (S)-1-[N-(BENZYLOXYCARBONYL)-PROLYL]-4-(3-CHLOROPHENYL)-PIPERAZINE] | 26% | 0% | – | – | –
3 | NC(=O)CN1CCCC1=O [Piracetam, reference compound] | 0% | 0% | – | – | –
4 | CC(C)N(CCNC(=O)[C@@H]1CCCN1C(=O)OCc1ccccc1)C(C)C [ST 691, (S)-1-[N-(BENZYLOXYCARBONYL)-PROLYL]-2,2(DIISOPROPYL)-ETHYLENDIAMINE] | 52% | 0% | 100% | non toxic | –
5 | O=C(NCCO)[C@@H]1CCCN1C(=O)OCc1ccccc1 [ST 704, (S)-N-[N-(BENZYLOXYCARBONYL)-PROLYL]-ETHANOLAMINE] | 0% | 46% | – | – | –
6 | O=C1CC[C@@H](C(=O)O)N1 [L-pyroglutamic acid] | – | – | – | – | 5-10 times

Source: patent EP0541497A1, “Prolineamide derivatives as enhancers of learning processes and memory and pharmaceutical compositions containing same” (Sigma-Tau Industrie Farmaceutiche Riunite S.p.A., priority 1991, dated 1993)
